The subject of this experiment is HMG-CoA reductase. In words: HMG-CoA Reductase Inhibition Assay (in vitro, intrinsic inhibitory activity). Format: biochemical. The settings on record: IC50 of test compound compared with compactin determined simultaneously, compactin assigned a value of 100; tested as sodium salt of dihydroxy acid form; rat liver microsomal enzyme. The procedure: The intrinsic HMG-CoA reductase inhibition activity of the claimed compounds is measured in the in vitro protocol published in J. Med. Chem., 28, p. 347-358 (1985) and described below:
Male Holtzman Sprague-Dawley rats (225-250 g) were kept on reversed lighting and fed Purina rat chow containing 3% cholestryamine for 7 days preceding their sacrifice by CO2 asphyxiation. Livers were removed 6 hours into the dark cycle and used immediately to prepare microsomes. […]
Test compounds or compactin (after first being converted to the sodium salt of their dihydroxy acid form in situ by addition of 1N NaOH (1 equivalent) were added to the assay system in 10-μL volumes at multiconcentration levels. After a 40-minute incubation at 37° C. with shaking and exposure to air, the reaction was stopped by the addition of 0.4 mL of 8N HCl. After an additional 30-minute incubation period at 37° C. to ensure the complete lactonization of mevalonic acid to mevalonolactone, 0.2 ml of the mixture was added to an 0.5×5.0 cm column containing 100-200 mesh Bio-Rex 5, chloride form (Bio-Rad), wetted with distilled water, as described by Alberts et al [J. Proc. Natl. Acad. Sci. U.S.A., 1980, 77, 3957]. […] Five milliliters of Aquasol-2 (New England Nuclear) was added to each vial, and radioactivity was measured in a Packard Tri Carb Prias scintillation counter. […]

Each structure is given as a SMILES string.

Take `C[C@H]1C=C2C=C[C@H](C)[C@H](CC[C@@H]3C[C@@H](O)CC(=O)O3)[C@H]2[C@@H](OC(=O)C(C)(C)[S+]([O-])c2ccccc2)C1` (stereo partly drawn) [Example 2, 6(R)-[2-[8(S)-[2-Methyl-2-(phenylsulfinyl)propionyloxy]-2(S),6(R)-dimethyl-1,2,6,7,8,8a(R)-hexahydronaphthyl-1(S)]ethyl]-4(R)-hydroxy-3,4,5,,6-tetrahydro-2H-pyran-2-one]: the “Relative Potency” value stood at 38.

Consider `C[C@H]1C=C2C=C[C@H](C)[C@H](CC[C@@H]3C[C@@H](O)CC(=O)O3)[C@H]2[C@@H](OC(=O)C(C)(C)Sc2ccccc2)C1` [Example 1, 6(R)-[2-[8(S)-[2-Methyl-2-(phenylthio)propionyloxy]-2(S),6(R)-dimethyl-1,2,6,7,8,8a(R)-hexahydronaphthyl-1(S)]ethyl]-4(R)-hydroxy-3,4,5,6-tetrahydro-2H-pyran-2-one], for which the “Relative Potency” value amounted to 156.

These data come from patent US4864038A, “Antihypercholesterolemic compounds” (Merck & Co., Inc., priority 1988, dated 1989).
